Test systems include EKVX NSCLC; HS 578T breast; OVCAR-8 ovarian; CCRF-CEM leukemia; UACC-62 melanoma; HOP-62 NSCLC; A498 renal; 786-0 renal; A549 NSCLC; DU-145 prostate; SK-MEL-2 melanoma; SW-620 colon; SNB-75 CNS; HCC-2998 colon; HCT-116 colon.
Assay in all cases: inhibition of tumour cell growth, NCI panel, 48 h

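All cell lines were grown in 96-well plates and treated with compound for 48 hours. TGI: concentration producing complete growth inhibition.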

Take `CC(=O)c1cc(CC2Cc3cc4c(cc3C2=O)CCC4)cc2c1CCC2` (stereo not drawn): the TGI in the test with EKVX NSCLC, in the test on HS 578T breast, in the test with OVCAR-8 ovarian, in the test with CCRF-CEM leukemia, with UACC-62 melanoma and with HOP-62 NSCLC was greater than 100 µM each time. In addition, the TGI with A498 renal, in the test with 786-0 renal, in the test with A549 NSCLC, with DU-145 prostate, with SK-MEL-2 melanoma and with SW-620 colon was greater than 100 µM throughout. The TGI in the test with SNB-75 CNS, in the test with HCC-2998 colon and in the test on HCT-116 colon was greater than 100 µM in each case.
For the compound `COc1ccc(Cc2cc(OC)c(OC)c(OC)c2)cc1`, the TGI with EKVX NSCLC is greater than 100 µM; in the test with OVCAR-8 ovarian, 27 µM; in the test with CCRF-CEM leukemia it was 16.9 µM; with UACC-62 melanoma, greater than 100 µM; with HOP-62 NSCLC, greater than 100 µM; in the test with A498 renal, 24.6 µM. The TGI was greater than 100 µM in the test on 786-0 renal; greater than 100 µM in the test on A549 NSCLC; 6.38 µM with DU-145 prostate; 41.4 µM with SK-MEL-2 melanoma; greater than 100 µM with SW-620 colon; greater than 18.5 µM with SNB-75 CNS. For the same compound, the TGI with HCC-2998 colon came to 1.4 µM; with HCT-116 colon it was 12.4 µM.
In the case of `CO[C@H](C(=O)O[C@H]1C(=O)N2CC[C@@H]3CCC[C@H]1C32C)c1ccccc1` (stereo partly drawn), the TGI with EKVX NSCLC, with OVCAR-8 ovarian, with CCRF-CEM leukemia, in the test with UACC-62 melanoma, with HOP-62 NSCLC and with 786-0 renal was greater than 100 µM in each case. For the same compound, the TGI in the test on A549 NSCLC, in the test on SK-MEL-2 melanoma, with SW-620 colon, with HCC-2998 colon and with HCT-116 colon was greater than 100 µM each time.
For `O=C(CSc1nnc(Cc2ccccc2)o1)Nc1ccc(Cl)cc1[N+](=O)[O-]`, the TGI in the test on EKVX NSCLC was 40.1 µM; with OVCAR-8 ovarian it was greater than 100 µM; in the test on CCRF-CEM leukemia, 54.4 µM; in the test with UACC-62 melanoma, 30.5 µM; in the test on HOP-62 NSCLC it was 31.3 µM; in the test on 786-0 renal it was 31 µM. The TGI in the test on A549 NSCLC stood at 35.6 µM; with SK-MEL-2 melanoma it was 29.8 µM; in the test with SW-620 colon, 53.8 µM; with SNB-75 CNS, 39.5 µM; in the test with HCT-116 colon, 27.7 µM.
In the case of `Cc1ccc(NC(=O)CCc2nnc3s/c(=C\c4cccc([N+](=O)[O-])c4)c(=O)n23)cc1`, the TGI with EKVX NSCLC, in the test on OVCAR-8 ovarian, in the test on CCRF-CEM leukemia, in the test with UACC-62 melanoma, with HOP-62 NSCLC and with A498 renal was greater than 100 µM throughout. For the same compound, the TGI was greater than 100 µM in the test on 786-0 renal; greater than 100 µM in the test with A549 NSCLC; greater than 100 µM with SK-MEL-2 melanoma; 38.6 µM in the test with SW-620 colon; greater than 100 µM in the test on SNB-75 CNS; greater than 100 µM in the test on HCC-2998 colon. The compound also had a TGI with HCT-116 colon greater than 100 µM.
In the case of `O=C1C[C@@H]2[C@@H](CCC23CCCC3)N1`, the TGI in the test with EKVX NSCLC, in the test on OVCAR-8 ovarian, with CCRF-CEM leukemia, with UACC-62 melanoma, in the test on HOP-62 NSCLC and with A498 renal was greater than 100 µM each time. Moreover, the TGI in the test with 786-0 renal, in the test with A549 NSCLC, with SK-MEL-2 melanoma, in the test with SW-620 colon, with SNB-75 CNS and with HCC-2998 colon was greater than 100 µM each time. This compound showed a TGI in the test on HCT-116 colon greater than 100 µM.
With `CC(=O)NNc1nc(C)c(C(/C=C/c2ccc(Cl)cc2)=N\N=C(N)N)s1`, the TGI in the test with OVCAR-8 ovarian, in the test with CCRF-CEM leukemia, with UACC-62 melanoma, in the test on HOP-62 NSCLC, in the test with 786-0 renal and in the test on A549 NSCLC was greater than 100 µM each time. Moreover, the TGI with SW-620 colon, with SNB-75 CNS, in the test on HCC-2998 colon and in the test on HCT-116 colon was greater than 100 µM throughout.
In the case of `Cc1cc(N(CCC#N)CCC#N)ccc1/C=C1N=C(/C=C/c2ccccc2)N(c2ccc(S(N)(=O)=O)cc2)C\1=O`, the TGI in the test with OVCAR-8 ovarian, with CCRF-CEM leukemia, in the test with UACC-62 melanoma, with HOP-62 NSCLC, in the test with A498 renal and with 786-0 renal was greater than 100 µM in each case. For the same compound, the TGI with A549 NSCLC, in the test on SK-MEL-2 melanoma, in the test with SW-620 colon, in the test with SNB-75 CNS and in the test on HCT-116 colon was greater than 100 µM in each case.
Regarding `CN1C(=S)CSc2ccccc21`, the TGI in the test with EKVX NSCLC, in the test on OVCAR-8 ovarian, in the test with CCRF-CEM leukemia, with HOP-62 NSCLC, in the test on 786-0 renal and in the test with A549 NSCLC was greater than 100 µM in each case. In addition, the TGI in the test with SK-MEL-2 melanoma, with SW-620 colon, in the test with SNB-75 CNS and in the test on HCT-116 colon was greater than 100 µM in each case.
In the case of `O=c1sc(Nc2ccc3ccccc3c2Cl)nc2ccccc12`, the TGI in the test with EKVX NSCLC, in the test on HS 578T breast, with CCRF-CEM leukemia, with UACC-62 melanoma, in the test with HOP-62 NSCLC and with 786-0 renal was greater than 100 µM in each case. In addition, the TGI in the test with A549 NSCLC, in the test on DU-145 prostate, in the test on SK-MEL-2 melanoma, with SW-620 colon, in the test with SNB-75 CNS and with HCC-2998 colon was greater than 100 µM in each case. In the test with HCT-116 colon, this compound yielded a TGI greater than 100 µM.
In the case of `O=C1N=CN=C2C=CC(Cl)=C(I)C12` (stereo not drawn), the TGI with EKVX NSCLC, in the test on OVCAR-8 ovarian, in the test with CCRF-CEM leukemia, with UACC-62 melanoma, in the test with HOP-62 NSCLC and in the test with A498 renal was greater than 100 µM in each case. Moreover, the TGI in the test on 786-0 renal, in the test on A549 NSCLC, in the test on SK-MEL-2 melanoma, in the test on SW-620 colon, with HCC-2998 colon and with HCT-116 colon was greater than 100 µM each time.
